Several values for one entry are separate records, joined by “and”; a condition that tells them apart may be missing. Equal entries are not always repeated. Marks after values point to notes of the source that are not given here. Non-standard residues stand in square brackets, D forms with d. Residues, ends and D or L forms follow the SMILES beside them. *: point of attachment. Asu = N[C@@H](CCCCCC(=O)O)C(=O)O; NHOH = ON*
Legend:
HDAC6 = biological target: T1, HDAC6 (Homo sapiens, UniProt Q9UBN7); test: HDAC inhibition assay (fluorogenic, Ac-Leu-Gly-Lys(Ac)-AMC); format: biochemical; details: HDAC6, replicates
T1 construct: HDAC6 (full length, BPS Bioscience, cat. #: 50056); purchased BPS Bioscience 50056
T1 sequence (Q9UBN7 1-1215): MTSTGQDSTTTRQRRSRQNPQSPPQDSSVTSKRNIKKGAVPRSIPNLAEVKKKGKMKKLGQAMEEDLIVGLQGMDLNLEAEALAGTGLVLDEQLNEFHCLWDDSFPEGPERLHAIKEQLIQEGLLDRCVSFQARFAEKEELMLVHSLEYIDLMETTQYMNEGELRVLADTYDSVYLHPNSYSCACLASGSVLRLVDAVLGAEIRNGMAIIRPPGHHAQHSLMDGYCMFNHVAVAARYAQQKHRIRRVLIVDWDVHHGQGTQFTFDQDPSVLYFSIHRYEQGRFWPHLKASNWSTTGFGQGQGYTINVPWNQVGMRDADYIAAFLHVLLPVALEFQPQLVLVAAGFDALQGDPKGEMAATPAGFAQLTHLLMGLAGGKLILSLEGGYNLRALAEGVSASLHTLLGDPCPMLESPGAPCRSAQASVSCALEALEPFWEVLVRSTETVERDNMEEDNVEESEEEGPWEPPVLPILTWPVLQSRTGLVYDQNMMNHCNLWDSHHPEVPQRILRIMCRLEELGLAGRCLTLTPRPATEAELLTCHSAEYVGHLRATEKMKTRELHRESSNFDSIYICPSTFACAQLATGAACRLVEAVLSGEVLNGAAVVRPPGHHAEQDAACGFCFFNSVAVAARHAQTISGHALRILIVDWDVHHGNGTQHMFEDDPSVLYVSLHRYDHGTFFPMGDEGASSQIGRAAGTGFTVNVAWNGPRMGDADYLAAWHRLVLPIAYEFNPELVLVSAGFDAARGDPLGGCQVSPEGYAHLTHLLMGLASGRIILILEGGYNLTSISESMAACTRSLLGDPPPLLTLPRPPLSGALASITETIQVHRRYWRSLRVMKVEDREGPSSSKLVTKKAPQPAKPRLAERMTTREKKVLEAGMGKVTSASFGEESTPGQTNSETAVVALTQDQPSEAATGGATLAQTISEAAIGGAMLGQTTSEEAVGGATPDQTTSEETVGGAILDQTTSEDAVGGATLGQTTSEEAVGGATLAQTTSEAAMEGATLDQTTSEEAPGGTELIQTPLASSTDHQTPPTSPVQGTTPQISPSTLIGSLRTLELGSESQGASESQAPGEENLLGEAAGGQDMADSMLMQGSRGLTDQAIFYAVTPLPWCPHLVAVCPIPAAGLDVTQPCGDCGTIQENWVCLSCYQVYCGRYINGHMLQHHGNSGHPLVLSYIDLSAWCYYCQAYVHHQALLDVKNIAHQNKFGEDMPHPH

HDAC2 = biological target: T2, HDAC2 (Homo sapiens, UniProt Q92769); test: as above; format: biochemical; details: for HDAC2 dose-response data (relative enzyme activity), Fig. 6 + S. Fig. 10: duplicate columns
T2 construct: HDAC2 (full length, C-terminal His tag, BPS Bioscience, cat. #: 50002); purchased BPS Bioscience 50002

HDACs 1‒3 and 8 = test: HDAC inhibition assays, statements across several class I isozymes; format: biochemical, human; details: resynthesized peptides, from Ki
HDAC4 = biological target: T3, HDAC4 (Homo sapiens, UniProt P56524); test: HDAC inhibition assay (fluorogenic, Ac-Leu-Gly-Lys(Tfa)-AMC); format: biochemical; details: 2 internal replicates
T3 construct: purchased BPS Bioscience 50004

HDAC3/NCoR2 [1] = biological target: T4, HDAC3/NCoR2 (Homo sapiens, UniProt O15379); test: HDAC inhibition assay (fluorogenic, Ac-Leu-Gly-Lys(Ac)-AMC); format: biochemical; details: for HDAC3 dose-response data (relative enzyme activity), Fig. 6 + S. Fig. 10: duplicate columns
T4 construct: HDAC3/NCoR2 (full length, C-terminal His tag, NCoR2 N-terminal GST tag); purchased BPS Bioscience 50003

HDAC1 [2] = biological target: T5, HDAC1 (Homo sapiens, UniProt Q13547); test: as above; format: biochemical; details: for HDAC1 dose-response data (relative enzyme activity), Fig. 6 + S. Fig. 10: duplicate columns
T5 construct: HDAC1 (full length, C-terminal His tag, C-terminal FLAG tag, BPS Bioscience, cat. #: 50051); FLAG (C); purchased BPS Bioscience 50051

HDAC3/NCoR2 [3] = biological target: T4, HDAC3/NCoR2; test: Recombinant HDAC µSPOT microarray binding assay
HDAC1 [4] = biological target: T5, HDAC1; test: Recombinant HDAC µSPOT microarray binding assay
[5] = log[inhibitor(M)] -10,5850266520292*, whole line marked with asterisks

T5 sequence (Q13547 whole entry): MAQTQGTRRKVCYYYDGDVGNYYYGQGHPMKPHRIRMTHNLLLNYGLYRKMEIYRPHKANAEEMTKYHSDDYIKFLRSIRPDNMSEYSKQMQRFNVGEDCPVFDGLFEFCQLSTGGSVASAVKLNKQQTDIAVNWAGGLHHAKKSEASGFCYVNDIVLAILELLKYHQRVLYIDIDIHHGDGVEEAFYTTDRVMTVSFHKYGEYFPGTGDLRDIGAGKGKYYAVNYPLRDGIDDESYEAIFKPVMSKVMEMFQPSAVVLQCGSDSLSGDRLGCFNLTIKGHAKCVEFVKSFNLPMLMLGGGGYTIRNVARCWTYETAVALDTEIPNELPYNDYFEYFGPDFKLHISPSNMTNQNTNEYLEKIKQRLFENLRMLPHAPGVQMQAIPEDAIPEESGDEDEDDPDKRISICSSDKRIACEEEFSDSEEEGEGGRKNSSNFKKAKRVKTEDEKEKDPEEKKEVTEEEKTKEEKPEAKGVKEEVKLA
T4 sequence (O15379 whole entry): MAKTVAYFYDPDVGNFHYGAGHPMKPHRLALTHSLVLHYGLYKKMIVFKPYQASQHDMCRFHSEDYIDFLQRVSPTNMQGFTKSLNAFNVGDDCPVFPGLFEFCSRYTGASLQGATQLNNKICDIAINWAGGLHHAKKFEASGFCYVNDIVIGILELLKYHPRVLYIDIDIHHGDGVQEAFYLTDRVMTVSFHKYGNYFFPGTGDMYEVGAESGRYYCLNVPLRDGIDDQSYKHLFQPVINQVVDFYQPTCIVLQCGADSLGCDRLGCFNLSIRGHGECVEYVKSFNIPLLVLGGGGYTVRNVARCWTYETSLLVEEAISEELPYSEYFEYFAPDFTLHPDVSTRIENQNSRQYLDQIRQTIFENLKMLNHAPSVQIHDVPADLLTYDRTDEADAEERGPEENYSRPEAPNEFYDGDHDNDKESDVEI
T4 sequence (Q9Y618 389-480 partner limits assumed): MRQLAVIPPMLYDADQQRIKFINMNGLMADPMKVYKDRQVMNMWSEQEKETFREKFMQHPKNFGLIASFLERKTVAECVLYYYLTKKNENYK
T2 sequence (Q92769 whole entry): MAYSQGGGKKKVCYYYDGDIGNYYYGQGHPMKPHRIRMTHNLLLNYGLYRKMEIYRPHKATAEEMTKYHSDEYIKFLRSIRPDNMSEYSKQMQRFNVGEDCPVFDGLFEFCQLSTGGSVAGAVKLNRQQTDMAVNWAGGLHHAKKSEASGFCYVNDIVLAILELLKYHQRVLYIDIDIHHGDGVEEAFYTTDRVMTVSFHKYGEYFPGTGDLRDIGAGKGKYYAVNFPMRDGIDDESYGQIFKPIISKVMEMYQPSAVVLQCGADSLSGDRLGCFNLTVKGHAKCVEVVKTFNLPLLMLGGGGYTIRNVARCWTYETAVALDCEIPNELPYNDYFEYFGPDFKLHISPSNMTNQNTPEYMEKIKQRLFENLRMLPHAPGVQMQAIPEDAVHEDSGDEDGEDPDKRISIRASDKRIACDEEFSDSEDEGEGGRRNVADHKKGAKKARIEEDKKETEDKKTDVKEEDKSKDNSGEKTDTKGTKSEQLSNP
T3 sequence (P56524 627-1084): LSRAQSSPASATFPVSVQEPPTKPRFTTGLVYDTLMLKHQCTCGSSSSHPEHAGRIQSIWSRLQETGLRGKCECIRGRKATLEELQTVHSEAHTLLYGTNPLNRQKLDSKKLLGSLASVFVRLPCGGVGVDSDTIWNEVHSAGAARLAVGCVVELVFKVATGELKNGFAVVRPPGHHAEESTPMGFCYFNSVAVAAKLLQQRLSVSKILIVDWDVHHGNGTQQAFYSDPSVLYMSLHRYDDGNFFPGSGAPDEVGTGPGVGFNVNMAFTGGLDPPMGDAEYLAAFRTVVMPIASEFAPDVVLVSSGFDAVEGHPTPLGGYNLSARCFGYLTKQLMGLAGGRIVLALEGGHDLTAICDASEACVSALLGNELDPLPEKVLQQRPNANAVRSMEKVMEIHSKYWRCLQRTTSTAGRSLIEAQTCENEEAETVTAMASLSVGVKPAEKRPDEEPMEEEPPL

CC(=O)N[C@@H](CC(C)C)C(=O)NCC(=O)N[C@@H](CCCCN)C(=O)NCC(=O)NCC(=O)N[C@@H](C)C(=O)N[C@@H](CCCCCC(=O)NO)C(=O)N[C@@H](CCCNC(=N)N)C(=O)N[C@@H](Cc1c[nH]cn1)C(=O)N[C@@H](CCCNC(=N)N)C(=O)N[C@@H](CCCCN)C(=O)N[C@H](C(=O)N[C@@H](CC(C)C)C(=O)N[C@@H](CCCNC(=N)N)C(=O)N[C@@H](CC(=O)O)C(=O)N[C@@H](CC(N)=O)C(=O)N[C@@H](Cc1c[nH]c2ccccc12)C(N)=O)C(C)C [16a] (Ac-LGKGGA[Asu](NHOH)RHRKVLRDNW-NH2)
residual enzymatic activity relative to control wells (HDAC6; log[inhibitor(M)] -4.30103): 4.09 and 0.65
residual enzymatic activity relative to control wells (HDAC6; log[inhibitor(M)] -5): 6.22 and 1.17
residual enzymatic activity relative to control wells (HDAC6; log[inhibitor(M)] -5.69897): 11.26 and 3.12
residual enzymatic activity relative to control wells (HDAC6; log[inhibitor(M)] -6.39794): 21.64 and 10.97
residual enzymatic activity relative to control wells (HDAC6; log[inhibitor(M)] -7.09691): 46.18 and 32.55
residual enzymatic activity relative to control wells (HDAC6; log[inhibitor(M)] -7.79588): 74.92 and 62.21
residual enzymatic activity relative to control wells (HDAC6; log[inhibitor(M)] -8.49485): 91.41 and 82.42
residual enzymatic activity relative to control wells (HDAC6; log[inhibitor(M)] -9.19382): 100.82 and 93.56
residual enzymatic activity relative to control wells (HDAC6; log[inhibitor(M)] -9.89279): 98.48 and 94.75
residual enzymatic activity relative to control wells (HDAC6; log[inhibitor(M)] -10.585): 101,7* and 98,09*
HDAC2 dose-response data (relative enzyme activity), Fig. 6 + S. Fig. 10 (HDAC2; log[inhibitor(M)] -7.79588): 97.4067 and 92.3774
HDAC2 dose-response data (relative enzyme activity), Fig. 6 + S. Fig. 10 (HDAC2; [5]): 106,147* and 102,092*
Ki (HDAC2; resynthesized peptide in solution, Cheng-Prusoff, n = 2): 18.3 ± 0.3 nM
selectivity against HDACs 1‒3 versus HDAC8 (HDACs 1‒3 and 8): over 100 fold
residual enzymatic activity relative to control wells (HDAC4; inhibitor 5 µM): 96.58
remaining activity at 5 µM (HDAC4; inhibitor 5 µM, read-out: residual enzymatic activity relative to control wells): 93.6%
residual enzymatic activity relative to control wells (HDAC4; inhibitor 50 µM): 68.39
remaining activity at 50 µM (HDAC4; inhibitor 50 µM, read-out: residual enzymatic activity relative to control wells): 67.1%
Ki (HDAC3/NCoR2 [1]): 2.22 ± 0.02 nM
HDAC3 dose-response data (relative enzyme activity), Fig. 6 + S. Fig. 10 (HDAC3/NCoR2 [1]; log[inhibitor(M)] -4.30103): 0.4175 and 0.3694
HDAC3 dose-response data (relative enzyme activity), Fig. 6 + S. Fig. 10 (HDAC3/NCoR2 [1]; log[inhibitor(M)] -5): 1.3048 and 1.953
HDAC3 dose-response data (relative enzyme activity), Fig. 6 + S. Fig. 10 (HDAC3/NCoR2 [1]; log[inhibitor(M)] -5.69897): 3.445 and 2.8496
HDAC3 dose-response data (relative enzyme activity), Fig. 6 + S. Fig. 10 (HDAC3/NCoR2 [1]; log[inhibitor(M)] -6.39794): 11.0647 and 10.1847
HDAC3 dose-response data (relative enzyme activity), Fig. 6 + S. Fig. 10 (HDAC3/NCoR2 [1]; log[inhibitor(M)] -7.09691): 22.9645 and 23.8522
HDAC3 dose-response data (relative enzyme activity), Fig. 6 + S. Fig. 10 (HDAC3/NCoR2 [1]; log[inhibitor(M)] -7.79588): 45.6159 and 50.9763
HDAC3 dose-response data (relative enzyme activity), Fig. 6 + S. Fig. 10 (HDAC3/NCoR2 [1]; log[inhibitor(M)] -8.49485): 73.3299 and 73.9314
HDAC3 dose-response data (relative enzyme activity), Fig. 6 + S. Fig. 10 (HDAC3/NCoR2 [1]; log[inhibitor(M)] -9.19382): 93.2672 and 99.1029
HDAC3 dose-response data (relative enzyme activity), Fig. 6 + S. Fig. 10 (HDAC3/NCoR2 [1]; log[inhibitor(M)] -9.89279): 96.9207 and 113.14
HDAC3 dose-response data (relative enzyme activity), Fig. 6 + S. Fig. 10 (HDAC3/NCoR2 [1]; [5]): 99,4259* and 104,433*
Ki (HDAC1 [2]): 15.7 ± 0.2 nM
HDAC1 dose-response data (relative enzyme activity), Fig. 6 + S. Fig. 10 (HDAC1 [2]; log[inhibitor(M)] -6.39794): 20.1917 and 18.7736
HDAC1 dose-response data (relative enzyme activity), Fig. 6 + S. Fig. 10 (HDAC1 [2]; log[inhibitor(M)] -7.09691): 58.4856 and 48.5202
HDAC1 dose-response data (relative enzyme activity), Fig. 6 + S. Fig. 10 (HDAC1 [2]; log[inhibitor(M)] -7.79588): 83.6845 and 79.5184
HDAC1 dose-response data (relative enzyme activity), Fig. 6 + S. Fig. 10 (HDAC1 [2]; log[inhibitor(M)] -8.49485): 104.354 and 102.416
HDAC1 dose-response data (relative enzyme activity), Fig. 6 + S. Fig. 10 (HDAC1 [2]; log[inhibitor(M)] -9.19382): 117.259 and 104.242
HDAC1 dose-response data (relative enzyme activity), Fig. 6 + S. Fig. 10 (HDAC1 [2]; log[inhibitor(M)] -9.89279): 112.284 and 97.8893
HDAC1 dose-response data (relative enzyme activity), Fig. 6 + S. Fig. 10 (HDAC1 [2]; [5]): 104,006* and 95,9789*
EC50 (HDAC3/NCoR2 [3]): 3.24 nM
EC50 (HDAC1 [4]): 12.6 nM

From article PMC7782793, “Hydroxamic acid-modified peptide microarrays for profiling isozyme-selective interactions and inhibition of histone deacetylases” (Nature Communications, 2021)
